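Each compound was tested at five concentrations against cells in 96-well plates for 48 hours. The concentration for 50% growth inhibition is given as GI50.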 The source made the active and inactive calls. Cut-off read from the data, not from the text of the source: active = GI50 up to about 1.1 µM and inactive = higher.
What was measured:
Assay in all cases: NCI-60 cell line screen, 48 h
786-0 = test system: 786-0
A549 = test system: A549
ACHN = test system: ACHN
BT-549 = test system: BT-549
CAKI-1 = test system: CAKI-1
CCRF-CEM = test system: CCRF-CEM
COLO 205 = test system: COLO 205
DU-145 = test system: DU-145
EKVX = test system: EKVX
HCC 2998 = test system: HCC 2998
HCT-116 = test system: HCT-116
HCT-15 = test system: HCT-15
HL-60 = test system: HL-60
HOP-62 = test system: HOP-62
HOP-92 = test system: HOP-92
HT-29 = test system: HT-29
Hs-578T = test system: Hs-578T
IGROV-1 = test system: IGROV-1
K562 = test system: K562
KM12 = test system: KM12
LOX IMVI = test system: LOX IMVI
M14 = test system: M14
MCF7 = test system: MCF7
MDA-MB-231 = test system: MDA-MB-231
MDA-MB-435 = test system: MDA-MB-435
MDA-N = test system: MDA-N
MOLT-4 = test system: MOLT-4
Malme-3M = test system: Malme-3M
NCI-H226 = test system: NCI-H226
NCI-H23 = test system: NCI-H23
NCI-H460 = test system: NCI-H460
NCI-H522 = test system: NCI-H522
NCI/ADR-RES = test system: NCI/ADR-RES
OVCAR-3 = test system: OVCAR-3
OVCAR-4 = test system: OVCAR-4
OVCAR-5 = test system: OVCAR-5
OVCAR-8 = test system: OVCAR-8
PC-3 = test system: PC-3
RPMI-8226 = test system: RPMI-8226
SF-268 = test system: SF-268
SF-295 = test system: SF-295
SF-539 = test system: SF-539
SK-MEL-28 = test system: SK-MEL-28
SK-MEL-2 = test system: SK-MEL-2
SK-OV-3 = test system: SK-OV-3
SN12C = test system: SN12C
SNB-19 = test system: SNB-19
SNB-75 = test system: SNB-75
SR = test system: SR
SW-620 = test system: SW-620
TK-10 = test system: TK-10
U-251 = test system: U-251
UACC-257 = test system: UACC-257
UACC-62 = test system: UACC-62
UO-31 = test system: UO-31
A498 = test system: A498
RXF 393 = test system: RXF 393
SK-MEL-5 = test system: SK-MEL-5

O=C(CNc1nccs1)Nn1cnc2ccc(S(=O)(=O)Nc3nccs3)cc2c1=O was tested, and the GI50 (786-0) was > 100 µM (inactive), the GI50 (A549) was > 100 µM (inactive) and the GI50 (ACHN) was > 100 µM (inactive). For the same molecule, the GI50 (BT-549) was > 100 µM (inactive), the GI50 (CAKI-1) was > 100 µM (inactive) and the GI50 (CCRF-CEM) was > 100 µM (inactive). The GI50 (COLO 205) was > 100 µM (inactive), the GI50 (DU-145) was > 100 µM (inactive) and the GI50 (EKVX) was > 100 µM (inactive). For the same molecule, the GI50 (HCC 2998) was > 100 µM (inactive), the GI50 (HCT-116) was > 100 µM (inactive) and the GI50 (HCT-15) was > 100 µM. For the same molecule, the GI50 (HL-60) was > 100 µM (inactive), the GI50 (HOP-62) was > 100 µM (inactive) and the GI50 (HOP-92) was > 100 µM (inactive). The GI50 (HT-29) was > 100 µM (inactive), the GI50 (Hs-578T) was > 100 µM (inactive) and the GI50 (IGROV-1) was > 100 µM (inactive). The GI50 (K562) was > 100 µM (inactive), the GI50 (KM12) was > 100 µM (inactive) and the GI50 (LOX IMVI) was > 100 µM (inactive). For the same molecule, the GI50 (M14) was > 100 µM (inactive), the GI50 (MCF7) was > 100 µM (inactive) and the GI50 (MDA-MB-231) was > 100 µM (inactive). For the same molecule, the GI50 (MDA-MB-435) was > 100 µM (inactive), the GI50 (MDA-N) was > 100 µM (inactive) and the GI50 (MOLT-4) was > 100 µM (inactive). For the same molecule, the GI50 (Malme-3M) was > 100 µM (inactive), the GI50 (NCI-H226) was > 100 µM (inactive) and the GI50 (NCI-H23) was > 100 µM (inactive). The GI50 (NCI-H460) was > 100 µM (inactive), the GI50 (NCI-H522) was > 100 µM (inactive) and the GI50 (NCI/ADR-RES) was > 100 µM (inactive). For the same molecule, the GI50 (OVCAR-3) was > 100 µM (inactive), the GI50 (OVCAR-4) was > 100 µM (inactive) and the GI50 (OVCAR-5) was > 100 µM (inactive). The GI50 (OVCAR-8) was > 100 µM (inactive), the GI50 (PC-3) was > 100 µM (inactive) and the GI50 (RPMI-8226) was > 100 µM (inactive). The GI50 (SF-268) was > 100 µM (inactive), the GI50 (SF-295) was > 100 µM (inactive) and the GI50 (SF-539) was > 100 µM (inactive). The GI50 (SK-MEL-28) was > 100 µM (inactive), the GI50 (SK-MEL-2) was > 100 µM (inactive) and the GI50 (SK-OV-3) was > 100 µM (inactive). The GI50 (SN12C) was > 100 µM (inactive), the GI50 (SNB-19) was > 100 µM (inactive) and the GI50 (SNB-75) was > 100 µM (inactive). The GI50 (SR) was 35.6 µM (inactive), the GI50 (SW-620) was > 100 µM (inactive) and the GI50 (TK-10) was > 100 µM (inactive). The GI50 (U-251) was > 100 µM (inactive), the GI50 (UACC-257) was > 100 µM (inactive) and the GI50 (UACC-62) was > 100 µM (inactive). The GI50 (UO-31) was > 100 µM (inactive).

For CC1(C)N=C(N)N=C(N)N1c1cccc(OCCOc2ccc([N+](=O)[O-])cc2)c1, the GI50 (786-0) was 4.99 µM (inactive), the GI50 (A498) was > 100 µM (inactive) and the GI50 (A549) was 4.48 µM (inactive). The GI50 (ACHN) was > 100 µM (inactive), the GI50 (BT-549) was 12.9 µM (inactive) and the GI50 (CAKI-1) was > 100 µM (inactive). The GI50 (CCRF-CEM) was 7.76 µM (inactive), the GI50 (COLO 205) was 37.4 µM (inactive) and the GI50 (DU-145) was 20.1 µM (inactive). For the same molecule, the GI50 (EKVX) was > 100 µM (inactive), the GI50 (HCT-116) was 4.81 µM (inactive) and the GI50 (HCT-15) was > 100 µM. The GI50 (HL-60) was 66.8 µM (inactive), the GI50 (HOP-62) was > 100 µM (inactive) and the GI50 (HOP-92) was > 100 µM (inactive). For the same molecule, the GI50 (HT-29) was 8.24 µM (inactive), the GI50 (Hs-578T) was > 100 µM (inactive) and the GI50 (IGROV-1) was 1.96 µM (inactive). For the same molecule, the GI50 (K562) was 41.9 µM (inactive), the GI50 (KM12) was 11.5 µM (inactive) and the GI50 (LOX IMVI) was 8.97 µM (inactive). For the same molecule, the GI50 (M14) was 34.8 µM (inactive), the GI50 (MCF7) was 16 µM (inactive) and the GI50 (MDA-MB-231) was > 100 µM (inactive). The GI50 (MDA-MB-435) was 5.04 µM (inactive), the GI50 (MDA-N) was 5.26 µM (inactive) and the GI50 (MOLT-4) was > 100 µM (inactive). The GI50 (Malme-3M) was 20.6 µM (inactive), the GI50 (NCI-H23) was 4.9 µM (inactive) and the GI50 (NCI-H460) was 7.53 µM (inactive). The GI50 (NCI-H522) was 3.79 µM (inactive), the GI50 (OVCAR-3) was 41.6 µM (inactive) and the GI50 (OVCAR-4) was 63.5 µM (inactive). For the same molecule, the GI50 (OVCAR-5) was > 100 µM (inactive), the GI50 (OVCAR-8) was 74.6 µM (inactive) and the GI50 (PC-3) was 0.822 µM (active). The GI50 (RPMI-8226) was 16.5 µM (inactive), the GI50 (RXF 393) was 21.8 µM (inactive) and the GI50 (SF-268) was 5.04 µM (inactive). For the same molecule, the GI50 (SF-295) was > 100 µM (inactive), the GI50 (SF-539) was 15.2 µM (inactive) and the GI50 (SK-MEL-28) was 53.3 µM (inactive). For the same molecule, the GI50 (SK-MEL-2) was 8.26 µM (inactive), the GI50 (SK-MEL-5) was 69.5 µM (inactive) and the GI50 (SK-OV-3) was > 100 µM (inactive). The GI50 (SN12C) was 6.49 µM (inactive), the GI50 (SNB-19) was 37.8 µM (inactive) and the GI50 (SR) was 0.238 µM (active). For the same molecule, the GI50 (SW-620) was 3.68 µM (inactive), the GI50 (TK-10) was > 100 µM (inactive) and the GI50 (U-251) was 7.33 µM (inactive). The GI50 (UACC-257) was 57.7 µM (inactive).

In the case of Cc1nnc([C@@]2(C)CC[C@H]3[C@@H](CCC4=CC(=O)CC[C@@]43C)[C@@H]2CC#N)o1, the GI50 (786-0) is reported as > 100 µM (inactive), the GI50 (A498) is reported as > 100 µM (inactive) and the GI50 (A549) is reported as > 100 µM (inactive). For the same molecule, the GI50 (ACHN) was > 100 µM (inactive), the GI50 (BT-549) was > 100 µM (inactive) and the GI50 (CAKI-1) was > 100 µM (inactive). The GI50 (CCRF-CEM) was > 100 µM (inactive), the GI50 (COLO 205) was > 100 µM (inactive) and the GI50 (EKVX) was > 100 µM (inactive). For the same molecule, the GI50 (HCT-116) was > 100 µM (inactive), the GI50 (HCT-15) was > 100 µM and the GI50 (HL-60) was > 100 µM (inactive). The GI50 (HOP-62) was > 100 µM (inactive), the GI50 (HOP-92) was > 100 µM (inactive) and the GI50 (HT-29) was > 100 µM (inactive). For the same molecule, the GI50 (Hs-578T) was > 100 µM (inactive), the GI50 (IGROV-1) was > 100 µM (inactive) and the GI50 (K562) was > 100 µM (inactive). The GI50 (KM12) was > 100 µM (inactive), the GI50 (LOX IMVI) was > 100 µM (inactive) and the GI50 (M14) was > 100 µM (inactive). For the same molecule, the GI50 (MCF7) was > 100 µM (inactive), the GI50 (MDA-MB-231) was > 100 µM (inactive) and the GI50 (MDA-MB-435) was > 100 µM (inactive). The GI50 (MDA-N) was > 100 µM (inactive), the GI50 (MOLT-4) was > 100 µM (inactive) and the GI50 (Malme-3M) was > 100 µM (inactive). The GI50 (NCI-H226) was > 100 µM (inactive), the GI50 (NCI-H23) was > 100 µM (inactive) and the GI50 (NCI-H522) was > 100 µM (inactive). For the same molecule, the GI50 (NCI/ADR-RES) was > 100 µM (inactive), the GI50 (OVCAR-3) was > 100 µM (inactive) and the GI50 (OVCAR-4) was > 100 µM (inactive). The GI50 (OVCAR-5) was > 100 µM (inactive), the GI50 (OVCAR-8) was > 100 µM (inactive) and the GI50 (PC-3) was > 100 µM (inactive). The GI50 (RPMI-8226) was > 100 µM (inactive), the GI50 (RXF 393) was > 100 µM (inactive) and the GI50 (SF-268) was > 100 µM (inactive). The GI50 (SF-295) was > 100 µM (inactive), the GI50 (SF-539) was > 100 µM (inactive) and the GI50 (SK-MEL-2) was > 100 µM (inactive). For the same molecule, the GI50 (SK-MEL-5) was > 100 µM (inactive), the GI50 (SK-OV-3) was > 100 µM (inactive) and the GI50 (SN12C) was > 100 µM (inactive). For the same molecule, the GI50 (SNB-19) was > 100 µM (inactive), the GI50 (SNB-75) was 41 µM (inactive) and the GI50 (SR) was > 100 µM (inactive). For the same molecule, the GI50 (SW-620) was > 100 µM (inactive), the GI50 (TK-10) was > 100 µM (inactive) and the GI50 (U-251) was > 100 µM (inactive). The GI50 (UACC-257) was > 100 µM (inactive), the GI50 (UACC-62) was > 100 µM (inactive) and the GI50 (UO-31) was > 100 µM (inactive).
